Assay results taken from patent publication US20230321105A1, “CELL SIGNAL DETECTION AND MODULATION IN DISEASE” (Washington University, priority 2022, published 2023).

How the values were obtained:
[1] = tested on: glioma; settings: STAT3 inhibitor and irradiation vs either treatment alone; glioma preclinical study; cited from earlier work
[2] = tested on: LL2/B3a tumors; assay: LL2/B3a tumors treated with Serpinb3a siRNA with or without 10 Gy RT; assay type: in vivo, C57/BL6 mice
Method: Single-cell suspensions were blocked with either Human TruStain FcX Solution (422301, Biolegend) or mouse TruStain FcX PLUS (anti-mouse CD16/32) Antibody (S17011E, Biolegend) to avoid nonspecific Fc receptor binding and stained with LIVE/DEADFixable Dead Cell Stain Kit (MACS) to exclude dead cells. For surface staining, cells were incubated with the appropriate antibodies for 30 min at 4° C. Intracellular cytokine and nuclear staining was performed after surface staining using Cyto-Fast Fix/Perm Buffer Set and True-Nuclear Transcription Factor Buffer Set, respectively (BioLegend). Data analysis including viSNE and FlowJo plugin FlowSOM were performed on FlowJo v.10 (TreeStar). A range of 20,000 to 60,000 live cells was acquired and individual flow cytometry data from each group were combined into a single data file for generating viSNE. Color-coded subpopulations were gated by pre-defined markers for each immune cell type and overlaid to the viSNE plots for total CD45+ cells from tumors. All flow cytometry gating plots, histograms, and statistics were generated on FlowJo.
For xenograft models, female athymic nude mice aged 6-7 weeks old (Charles River) were injected subcutaneously with 5×10^6 Caski/Ctrl or Caski/B3 cells suspended in serum-free IMDM and 50% Matrigel Basement Membrane Matrix (Corning) to a final volume of 100 μl on their flank. For immunocompetent models, female C57/BL6 mice aged 7-8 weeks (Charles River) were injected subcutaneously with 5×10^5 LL2/Ctrl or LL2/B3a cells suspended in 100 μl of PBS into the right flank. To deplete myeloid cells, mice were treated with anti-CD11b antibody (Ultra-LEAF purified anti-mouse CD11b, Biolegend) or isotype IgG2b as control (Ultra-LEAF purified rat IgG2b, Biolegend). Antibodies were administered through intraperitoneal injection at the initial dose of 300 μg in 150 μl PBS on day 10 post-tumor inoculation, and a subsequent dose of 150 μg in 100 μl PBS every three days. To knock down Serpinb3a, mice received either mSerpinb3a siRNA (5′-ACAUCGAAUUUAACUUCAUtt-3′; 5′-AUGAAGUUAAAUUCGAUGUtt-3′; ID:s73336, Thermo) or control siRNA (Ambion in vivo negative control #1 Thermo) complexed with Invivofectamine 3 (Thermo Fisher) as per manufacturer's protocol. Mice received three intratumoral injections of 10 μg siRNA on days 9, 11, and 13 post-tumor inoculation before radiation treatment performed on day 14. On days 16 and 19, mice received 20 μg siRNA via intraperitoneal injection. For radiation treatment, mice were randomized to receive sham or 10Gy RT using the Xstrahl Small Animal Radiation Research Platform (SARRP) 200 (Xstrahl Life Sciences). Tumor volume was measured twice weekly and calculated by (length×width2)/2. For tissue dissociation, tumors were manually dissected and digested with 1 mg/ml Collagenase, 0.5 mg/ml hyaluronidase, and 10 mg/mL DNase I type IV (Sigma), and transferred to a tissue disaggregator (Medicon, BectonDickinson) using a CTSV (Medimachine II, BectonDickinson) and tissue homogenates were filtered through a 100 μm strainer. Spleens were dissociated by being pressed through a 70 μm filter. Animal work was approved by the Washington University Institute Institutional Animal Care and Use Committee (Protocol #20-0470).
T cells isolated using MojoSort mouse CD3 T cell isolation kit (Biolegend) were labeled with CellTrace violet and activated with CD3/CD28 Dynabeads (Thermo Fisher) for 4 days to evaluate proliferation. To examine TNF and IFNr, T cells were stimulated with 500× Cell Activation Cocktail containing 40.5 μM phorbol-12-myristate 13-acetate (PMA) and 669.3 μM ionomycin (Biolegend) in the presence of 5 μg/mL BFA (Biolegend) for 5 h and stained with surface/intracellular markers for FACS analysis.
Cell culture supernatant was collected at 48 h after fresh media was added to the adherent cells in a monolayer. Cell lysates were prepared using NP-40 buffer (Alfa Aesar). […]

[3] = tested on: Serpinb3a; assay: Knockdown of Serpinb3a in tumors by qPCR; assay type: in vivo, mouse; settings: siB3-treated LL2/B3a tumors; average
Method: For xenograft models, female athymic nude mice aged 6-7 weeks old (Charles River) were injected subcutaneously with 5×10^6 Caski/Ctrl or Caski/B3 cells suspended in serum-free IMDM and 50% Matrigel Basement Membrane Matrix (Corning) to a final volume of 100 μl on their flank. For immunocompetent models, female C57/BL6 mice aged 7-8 weeks (Charles River) were injected subcutaneously with 5×10^5 LL2/Ctrl or LL2/B3a cells suspended in 100 μl of PBS into the right flank. To deplete myeloid cells, mice were treated with anti-CD11b antibody (Ultra-LEAF purified anti-mouse CD11b, Biolegend) or isotype IgG2b as control (Ultra-LEAF purified rat IgG2b, Biolegend). […] Tumor volume was measured twice weekly and calculated by (length×width2)/2. […]
Lipofectamine RNAiMAX (Thermo Fisher) was used for STAT1 siRNA (ID: SASI_Hs02_00343387, SASI_Hs01_00098937, Sigma), STAT3 siRNA (ID: SASI_Hs01_00121206, SASI_Hs01_00061860, Sigma), and negative control siRNA (SIC001, Sigma) transfection, according to the manufacturer's instructions. […] Quantitative polymerase chain reaction (qPCR) was performed using PowerUp SYBR green PCR Master Mix (Applied Biosystems) and the Applied Biosystems 7900 Fast real-time PCR system and software. Each sample was performed in triplicate, gene expression levels were normalized to GAPDH, and fold changes were calculated using the ΔΔCt method. […]

[4] = tested on: pSTAT3 (Tyr705) and CD11b; assay: Immunohistochemistry of mouse tumors treated with Serpinb3a siRNA; assay type: in vivo
Method: Pretreatment serum SCCA was evaluated by ARUP National Reference Laboratory (Salt Lake City, UT, USA) using ELISA, and tissue microarrays were generated from untreated human tumor specimens. TMA sections were sent to HistoWiz Inc for IHC staining for CD11b (1:100, Abcam ab224800) and IHC for pSTAT3 (1:200, Sigma SAB4300033) was performed by Washington University AMP Core Labs. Mouse tumor sections were stained with pSTAT3 (1:150, Invitrogen PA5-121259) and CD11b (1:500, Invitrogen PA5-79532), using a Pierce peroxidase IHC detection kit (Thermo Fisher). QuPath V0.3.2 software was used for automated analysis using surface and cytoplasmic staining to determine the percent cells positive for CD11b. The staining scores for pSTAT3 were evaluated by the pathologist and calculated by (% of positively stained tumor cells x staining intensity ranged from 0-3). Values from at least two cores from each sample were considered valid and an average score was taken.

Compound	survival [1]	PD-1 in CD8+ T cells ([2]; RT/siB3 vs RT/siNC)	tumor growth inhibition ([2]; combination of Serpinb3a knockdown with 10 Gy RT (RT/siB3))	tumor growth ([2]; sham siB3-treated vs sham siNC-treated tumors)	CTLA-4 in CD8+ T cells ([2]; sham/RT siB3 vs siNC tumors)	ratio of CD8/Treg ([2]; sham/RT siB3 vs siNC tumors)	CD8+ T cells in tumors ([2]; sham/siB3 tumors)	M-MDSCs, PMN-MDSCs, and M2 macrophages in tumors ([2]; sham/siB3 vs sham/siNC tumors, flow cytometry)	expression of CXCL1, and S100A8/A9 in tumor homogenates ([2]; sham/siNC vs. sham/siB3, ELISA)	proliferative capacity of CD8+ T cells upon anti-CD3/28 stimulation ([2]; siB3 tumor-derived vs siNC tumor-derived)	expression of granzyme B and perforin in CD8+ T cells ([2]; siB3 tumors)	expression of granzyme B and perforin in CD8+ T cells ([2]; siB3 tumors with radiation treatment)	decrease of Serpinb3a RNA expression in tumors [3] [%]	pSTAT3 expression (immunostaining of pSTAT3(Tyr705)) ([4]; LL2/B3a+siB3 tumors)	CD11b+ myeloid cell infiltration ([4]; Serpinb3a knockdown tumors)
C[C@H](NC(=O)/C(C#N)=C/c1cccc(Br)n1)c1ccccc1 [WP1066]	enhanced survival														
siB3: mSerpinb3a siRNA 5′-ACAUCGAAUUUAACUUCAUtt-3′; 5′-AUGAAGUUAAAUUCGAUGUtt-3′; ID:s73336, Thermo, complexed with Invivofectamine 3 (sense ACAUCGAAUUUAACUUCAUTT; antisense AUGAAGUUAAAUUCGAUGUTT; Invivofectamine 3 complex, further chemistry not given here)		lower	more significant tumor growth inhibition	Reduced tumor growth	lower	higher ratio	increase	significant reduction	significant decrease	markedly higher proliferative capacity	increased expression	further enhanced	65	significantly reduced	reduced
